Data from publication PMC9981206 (Cancer Research Communications, 2022).

Assays:
Assay type in all cases: cell-based
WNT/β-catenin signaling = experiment: luciferase-based WNT/β-catenin signaling reporter assay in HEK293 cells; conditions: Homo sapiens, HEK293, read-out: WNT reporter IC50
Method: (§1) The cell lines where obtained from ATCC or the Japanese Collection of Research Bioresources (JCRB) in 2014 and culturing was performed as described previously ([7]). The cell cultures were kept below 20 passages (∼10 weeks) and routinely monitored (upon thawing and monthly) for Mycoplasma infections with MycoAlert Mycoplasma Detection Kit (Lonza). All cell lines were authenticated by short tandem repeat profiling to confirm their identity (Eurofins). TNKS1/2 and PARP1 biochemical assays ([27, 32]), luciferase-based WNT/β-catenin signaling pathway reporter assay ([22, 27, 32]), anti-proliferative assays, and NCI-60 tumor cell line panel screen ([7]), immunoblot analyses ([7, 32, 39]), RNA isolation, and real-time qRT-PCR ([7, 27, 39, 40]) were performed as previously described.

[1] = tested on: RKO colon carcinoma cells; experiment: MTS colorimetric cell growth assay, RKO; conditions: Homo sapiens, 120 h, read-out: RKO GI50
From the text: as §1, with “The” for “The cell lines where obtained from ATCC or the Japanese Collection of Research Bioresources (JCRB) in 2014 and culturing was performed as described previously ([7]). The”
(§2) B, IC50 values for inhibition of TNKS1, TNKS2, and PARP1 (biochemical assays) and luciferase-based WNT/β-catenin signaling reporter assay in HEK293 cells (WNT reporter). […] Mean ± SD values from a minimum of three independent experiments are shown. For B and C, numbers in superscript indicate data from reference 22, 27, 31, and 32. […] C, MTS colorimetric cell growth assay for various concentrations of tankyrase inhibitors in treated COLO 320DM and RKO colon cancer cells. […] Data from one representative experiment of more than three repeated assays, each with six replicates, are shown.

[2] = tested on: COLO 320DM colon carcinoma cells; experiment: MTS colorimetric cell growth assay, COLO 320DM; conditions: Homo sapiens, 120 h, read-out: COLO320DM GI50
From the text: as §1, with “The” for “The cell lines where obtained from ATCC or the Japanese Collection of Research Bioresources (JCRB) in 2014 and culturing was performed as described previously ([7]). The”
as §2

SMILES | IC50 (WNT/β-catenin signaling) [nM] | GI50 [1] [nM] | GI50 [2] [nM]
Cc1cc(N2C[C@@H](C)N[C@@H](C)C2)ncc1-c1ccc(-c2nc3c(ccn3C)c(=O)[nH]2)cc1 [AZ6102] | 16 ± 4.5 | 6700 | 50
Oc1nc(-c2ccc(C(F)(F)F)cc2)nc2c1CSCC2 [XAV939] | 220 ± 21 | 9500 | > 10000
